Results taken from patent US8574563B2 (Bristol-Myers Squibb Company, priority 2006, dated 2013).
Like-named read-outs stand apart in the source and are kept apart here.

Test system: HCV 1b-377-neo replicon cells
Experiment: HCV replicon assay, HCV 1b-377-neo replicon cells (1b FRET)
Assay type: cell-based, Hepatitis C virus genotype 1b
Conditions: HCV 1b-377-neo replicon cells, HCV 1b genotype, read-out: EC50 range against HCV 1b (Table 2, Range)
Summary of the method: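 FRET-based replicon assay in HCV 1b-377-neo cells, including a comparison line carrying the NS5A Y2065H mutation that confers resistance to a reference compound.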

Structure (SMILES)	EC50 (Hepatitis C virus) [nM]	EC50 [nM]
CCN(C)[C@@H](C(=O)N1CCC[C@H]1c1ncc(-c2ccc(-c3ccc(-c4cnc([C@@H]5CCCN5C(=O)[C@@H](NC(=O)OC)C(C)C)[nH]4)cc3)cc2)[nH]1)c1ccccc1 [Example M78, methyl ((1S)-1-(((2S)-2-(5-(4′-(2-((2S)-1-((2R)-2-(ethyl(methyl)amino)-2-phenylacetyl)-2-pyrrolidinyl)-1H-imidazol-5-yl)-4-biphenylyl)-1H imidazol-2-yl)-1-pyrrolidinyl)carbonyl)-2-methylpropyl)carbamate]	1 to 99	–
CCN(CC)[C@@H](C(=O)N1CCC[C@H]1c1ncc(-c2ccc(-c3ccc(-c4cnc([C@@H]5CCCN5C(=O)[C@@H](NC(=O)OC)C(C)C)[nH]4)cc3)cc2)[nH]1)C(C)C [Example M79, methyl ((1S)-1-(((2S)-2-(5-(4′-(2-((2S)-1-(N,N-diethyl-D-valyl)-2-pyrrolidinyl)-1H-imidazol-5-yl)-4-biphenylyl)-1H-imidazol-2-yl)-1-pyrrolidinyl)carbonyl)-2-methylpropyl)carbamate]	1 to 99	–
COC(=O)N[C@H](C(=O)N1CCC[C@H]1c1ncc(-c2ccc(-c3ccc(-c4cnc([C@@H]5CCCN5C(=O)[C@H](NC(=O)OC)c5ccccc5)[nH]4)cc3)cc2)[nH]1)C(C)C [Example M80, methyl ((1S)-1-(((2S)-2-(5-(4′-(2-((2S)-1-((2R)-2-((methoxycarbonyl)amino)-2-phenylacetyl)-2-pyrrolidinyl)-1H-imidazol-5-yl)-4-biphenylyl)-1H-imidazol-2-yl)-1-pyrrolidinyl)carbonyl)-2-methylpropyl)carbamate]	1 to 99	–
COC(=O)N[C@H](C(=O)N1CCC[C@H]1c1ncc(-c2ccc(-c3ccc(-c4cnc([C@@H]5CCCN5C(=O)CC(C)C)[nH]4)cc3)cc2)[nH]1)C(C)C [Example M81, methyl ((1S)-2-methyl-1-(((2S)-2-(5-(4′-(2-((2S)-1-(3-methylbutanoyl)-2-pyrrolidinyl)-1H-imidazol-5-yl)-4-biphenylyl)-1H-imidazol-2-yl)-1-pyrrolidinyl)carbonyl)propyl) carbamate]	–	100 to 999
COC(=O)N[C@H](C(=O)N1CCC[C@H]1c1ncc(-c2ccc(-c3ccc(-c4cnc([C@@H]5CCCN5C(=O)N5CCN(C)CC5)[nH]4)cc3)cc2)[nH]1)C(C)C [Example M82, methyl ((1S)-2-methyl-1-(((2S)-2-(5-(4′-(2-((2S)-1-((4-methyl-1-piperazinyl)carbonyl)-2-pyrrolidinyl)-1H-imidazol-5-yl)-4-biphenylyl)-1H-imidazol-2-yl)-1-pyrrolidinyl)carbonyl)propyl) carbamate]	–	1 to 99
CCCN(CCC)[C@H](C)C(=O)N1CCC[C@H]1c1ncc(-c2ccc(-c3ccc(-c4cnc([C@@H]5CCCN5C(=O)[C@@H](NC(=O)OC)C(C)C)[nH]4)cc3)cc2)[nH]1 [Example M83, methyl ((1S)-1-(((2S)-2-(5-(4′-(2-((2S)-1-(N,N-dipropyl-D-alanyl)-2-pyrrolidinyl)-1H-imidazol-5-yl)-4-biphenylyl)-1H-imidazol-2-yl)-1-pyrrolidinyl)carbonyl)-2-methylpropyl)carbamate]	1 to 99	–
CCCN(CCC)[C@@H](C)C(=O)N1CCC[C@H]1c1ncc(-c2ccc(-c3ccc(-c4cnc([C@@H]5CCCN5C(=O)[C@@H](NC(=O)OC)C(C)C)[nH]4)cc3)cc2)[nH]1 [Example M84, methyl ((1S)-1-(((2S)-2-(5-(4′-(2-((2S)-1-(N,N-dipropyl-L-alanyl)-2-pyrrolidinyl)-1H-imidazol-5-yl)-4-biphenylyl)-1H-imidazol-2-yl)-1-pyrrolidinyl)carbonyl)-2-methylpropyl)carbamate]	1 to 99	–
CC[C@H](C(=O)N1CCC[C@H]1c1ncc(-c2ccc(-c3ccc(-c4cnc([C@@H]5CCCN5C(=O)[C@@H](NC(=O)OC)C(C)C)[nH]4)cc3)cc2)[nH]1)N(CC)CC [Example M85, methyl ((1S)-1-(((2S)-2-(5-(4′-(2-((2S)-1-((2R)-2-(diethylamino)butanoyl)-2-pyrrolidinyl)-1H-imidazol-5-yl)-4-biphenylyl)-1H-imidazol-2-yl)-1-pyrrolidinyl)carbonyl)-2-methylpropyl)carbamate]	1 to 99	–
CC[C@@H](C(=O)N1CCC[C@H]1c1ncc(-c2ccc(-c3ccc(-c4cnc([C@@H]5CCCN5C(=O)[C@@H](NC(=O)OC)C(C)C)[nH]4)cc3)cc2)[nH]1)N(CC)CC [Example M86, methyl ((1S)-1-(((2S)-2-(5-(4′-(2-((2S)-1-((2S)-2-(diethylamino)butanoyl)-2-pyrrolidinyl)-1H-imidazol-5-yl)-4-biphenylyl)-1H-imidazol-2-yl)-1-pyrrolidinyl)carbonyl)-2-methylpropyl)carbamate]	1 to 99	–
COC(=O)N[C@H](C(=O)N1CCC[C@H]1c1ncc(-c2ccc(-c3ccc(-c4cnc([C@@H]5CCCN5C(=O)c5c[nH]cn5)[nH]4)cc3)cc2)[nH]1)C(C)C [Example M87, methyl ((1S)-1-(((2S)-2-(5-(4′-(2-((2S)-1-(1H-imidazol-4-ylcarbonyl)-2-pyrrolidinyl)-1H-imidazol-5-yl)-4-biphenylyl)-1H-imidazol-2-yl)-1-pyrrolidinyl)carbonyl)-2-methylpropyl)carbamate]	1 to 99	–
CCN(CC)[C@@H](COC)C(=O)N1CCC[C@H]1c1ncc(-c2ccc(-c3ccc(-c4cnc([C@@H]5CCCN5C(=O)[C@@H](NC(=O)OC)C(C)C)[nH]4)cc3)cc2)[nH]1 [Example M88, methyl ((1S)-1-(((2S)-2-(5-(4′-(2-((2S)-1-(N,N-diethyl-O-methyl-L-seryl)-2-pyrrolidinyl)-1H-imidazol-5-yl)-4-biphenylyl)-1H-imidazol-2-yl)-1-pyrrolidinyl)carbonyl)-2-methylpropyl)carbamate]	1 to 99	–
CCN(CC)[C@H](CC(N)=O)C(=O)N1CCC[C@H]1c1ncc(-c2ccc(-c3ccc(-c4cnc([C@@H]5CCCN5C(=O)[C@@H](NC(=O)OC)C(C)C)[nH]4)cc3)cc2)[nH]1 [Example M89, methyl ((1S)-1-(((2S)-2-(5-(4′-(2-((2S)-1-(N^2,N^2-diethyl-D-asparaginyl)-2-pyrrolidinyl)-1H-imidazol-5-yl)-4-biphenylyl)-1H-imidazol-2-yl)-1-pyrrolidinyl)carbonyl)-2-methylpropyl)carbamate]	1 to 99	–
COC(=O)N[C@H](C(=O)N1CCC[C@H]1c1ncc(-c2ccc(-c3ccc(-c4cnc([C@H]5CCCN5C(=O)[C@H](NC(=O)OC)C(C)C)[nH]4)cc3)cc2)[nH]1)C(C)C [Example M90, methyl ((1S)-1-(((2S)-2-(5-(4′-(2-((2R)-1-((2R)-2-((methoxycarbonyl)amino)-3-methylbutanoyl)-2-pyrrolidinyl)-1H-imidazol-5-yl)-4-biphenylyl)-1H-imidazol-2-yl)-1-pyrrolidinyl)carbonyl)-2-methylpropyl)carbamate]	1000 to 10000	–
CCN(CC)[C@H](COC)C(=O)N1CCC[C@H]1c1ncc(-c2ccc(-c3ccc(-c4cnc([C@@H]5CCCN5C(=O)[C@@H](NC(=O)OC)C(C)C)[nH]4)cc3)cc2)[nH]1 [Example M91, methyl ((1S)-1-(((2S)-2-(5-(4′-(2-((2S)-1-(N,N-diethyl-O-methyl-D-seryl)-2-pyrrolidinyl)-1H-imidazol-5-yl)-4-biphenylyl)-1H-imidazol-2-yl)-1-pyrrolidinyl)carbonyl)-2-methylpropyl)carbamate]	1 to 99	–
CCN(CC)[C@@H](C(=O)N1CCC[C@H]1c1ncc(-c2ccc(-c3ccc(-c4cnc([C@@H]5CCCN5C(=O)[C@@H](NC(=O)OC)C(C)C)[nH]4)cc3)cc2)[nH]1)C(C)(C)C [Example M91x]	–	1 to 99
COC(=O)N[C@@H](CC(N)=O)C(=O)N1CCC[C@H]1c1ncc(-c2ccc(-c3ccc(-c4cnc([C@@H]5CCCN5C(=O)[C@@H](NC(=O)OC)C(C)C)[nH]4)cc3)cc2)[nH]1 [Example M91y, methyl ((1S)-3-amino-1-(((2S)-2-(5-(4′-(2-((2S)-1-((2S)-2-((methoxycarbonyl)amino)-3-methylbutanoyl)-2-pyrrolidinyl)-1H-imidazol-5-yl)-4-biphenylyl)-1H-imidazol-2-yl)-1-pyrrolidinyl)carbonyl)-3-oxopropyl)carbamate (non-preferred name)]	–	100 to 999
COC(=O)N[C@@H](C)C(=O)N1CCC[C@H]1c1ncc(-c2ccc(-c3ccc(-c4cnc([C@@H]5CCCN5C(=O)c5ncco5)[nH]4)cc3)cc2)[nH]1 [Example M92, methyl ((1S)-1-methyl-2-((S)-2-(5-(4′-(2-((2S)-1-(1,3-oxazol-2-ylcarbonyl)-2-pyrrolidinyl)-1H-imidazol-5-yl)-4-biphenylyl)-1H-imidazol-2-yl)-1-pyrrolidinyl)-2-oxoethyl)carbamate]	1000 to 10000	–
COC(=O)N[C@@H](C)C(=O)N1CCC[C@H]1c1ncc(-c2ccc(-c3ccc(-c4cnc([C@@H]5CCCN5C(=O)[C@@H](NC(=O)OC)C5CC5)[nH]4)cc3)cc2)[nH]1 [Example M93, methyl ((1S)-1-cyclopropyl-2-((2S)-2-(5-(4′-(2-((2S)-1-(N-(methoxycarbonyl)-L-alanyl)-2-pyrrolidinyl)-1H-imidazol-5-yl)-4-biphenylyl)-1H-imidazol-2-yl)-1-pyrrolidinyl)-2-oxoethyl)carbamate]	1 to 99	–
CCC[C@H](NC(=O)OC)C(=O)N1CCC[C@H]1c1ncc(-c2ccc(-c3ccc(-c4cnc([C@@H]5CCCN5C(=O)[C@H](C)NC(=O)OC)[nH]4)cc3)cc2)[nH]1 [Example M94, methyl ((1S)-1-(((2S)-2-(5-(4′-(2-((2S)-1-((2S)-2-((methoxycarbonyl)amino)propanoyl)-2-pyrrolidinyl)-1H-imidazol-5-yl)-4-biphenylyl)-1H-imidazol-2-yl)-1-pyrrolidinyl)carbonyl)butyl) carbamate]	–	1 to 99
COC(=O)N[C@@H](C)C(=O)N1CCC[C@H]1c1ncc(-c2ccc(-c3ccc(-c4cnc([C@@H]5CCCN5C(=O)[C@@H](NC(=O)OC)C(C)(C)C)[nH]4)cc3)cc2)[nH]1 [Example M95, methyl ((1S)-1-(((2S)-2-(5-(4′-(2-((2S)-1-(N-(methoxycarbonyl)-L-alanyl)-2-pyrrolidinyl)-1H-imidazol-5-yl)-4-biphenylyl)-1H-imidazol-2-yl)-1-pyrrolidinyl)carbonyl)-2,2-dimethylpropyl)carbamate]	1 to 99	–
